Reference: US20170008888A1 (KYORIN PHARMACEUTICAL CO., LTD., priority 2014, published 2017)

How the values were obtained:
ERK5 = biological target: T1, ERK5 (Homo sapiens, UniProt Q13164); test: Probe-based (AX9989 acyl phosphate ATP probe) kinase profiling in Jurkat lysate: ERK5; format: binding; conditions: for IC50: calculated from percent inhibition of AX9989 labeling and the screening concentration, Jurkat lysate; for inhibition at 1 µM: screening concentration 1.0 μM; for inhibition at 1 µM / inhibition at 0.1 µM: read-out: Kinase inhibition % at indicated screening concentration: ERK5; for inhibition at 0.1 µM: screening concentration 0.1 μM
T1 construct: screened for activity against several kinases in Jurkat cells; endogenous in cells; host or cells: Jurkat cell lysate
T1 sequence (Q13164 whole entry): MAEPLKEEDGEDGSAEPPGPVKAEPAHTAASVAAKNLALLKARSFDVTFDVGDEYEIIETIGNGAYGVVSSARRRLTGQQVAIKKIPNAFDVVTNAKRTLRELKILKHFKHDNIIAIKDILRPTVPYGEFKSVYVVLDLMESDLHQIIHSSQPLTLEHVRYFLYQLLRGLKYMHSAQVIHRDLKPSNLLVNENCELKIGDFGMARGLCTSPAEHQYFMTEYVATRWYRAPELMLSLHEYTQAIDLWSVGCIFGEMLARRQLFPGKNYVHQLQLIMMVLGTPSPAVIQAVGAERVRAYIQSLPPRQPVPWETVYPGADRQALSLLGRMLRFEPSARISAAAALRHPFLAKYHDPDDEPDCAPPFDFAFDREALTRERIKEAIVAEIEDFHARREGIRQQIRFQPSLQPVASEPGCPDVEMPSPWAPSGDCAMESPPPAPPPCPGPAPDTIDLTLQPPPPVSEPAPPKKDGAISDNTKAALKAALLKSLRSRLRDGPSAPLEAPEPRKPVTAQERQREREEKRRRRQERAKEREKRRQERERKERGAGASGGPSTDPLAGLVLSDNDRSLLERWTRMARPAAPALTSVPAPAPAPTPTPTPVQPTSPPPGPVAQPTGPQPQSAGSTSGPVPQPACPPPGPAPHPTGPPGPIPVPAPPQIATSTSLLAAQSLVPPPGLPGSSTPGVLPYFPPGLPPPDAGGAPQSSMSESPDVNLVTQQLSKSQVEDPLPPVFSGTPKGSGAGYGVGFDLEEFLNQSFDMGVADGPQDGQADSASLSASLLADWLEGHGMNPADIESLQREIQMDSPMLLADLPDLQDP
Outline: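 Gel-filtered Jurkat lysate (5 mg/ml, 20 mM MnCl2) preincubated 15 min at room temperature with compound, then labelled with 5 μM AX9989 acyl phosphate ATP probe. Probe-labelled ERK5 active-site peptides quantified by LC/MS after trypsin digestion and streptavidin capture; IC50 calculated from percent inhibition at the screening concentration.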

AMPKa1 or AMPKa2 = test: Probe-based (AX9989) kinase profiling in Jurkat lysate: AMPKa1 or AMPKa2; format: binding
Outline: (§1)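 Jurkat lysate, HEPES pH 7.5 buffer + 20 mM MnCl2; cpd 15 min RT; AX9989 ATP probe 5 μM final, RT. Trypsin digest, streptavidin capture, LC/MS; % inhibition vs vehicle from labeled-peptide signal.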

JAK1 = biological target: T2, JAK1 (Homo sapiens, UniProt P23458); test: Probe-based (AX9989) kinase profiling in Jurkat lysate: JAK1; format: binding; conditions: read-out: Kinase inhibition % at indicated screening concentration: JAK1; for inhibition at 1 µM: screening concentration 1.0 μM; for inhibition at 0.1 µM: screening concentration 0.1 μM
T2 construct: screened for activity against several kinases in Jurkat cells; endogenous in cells; host or cells: Jurkat cell lysate
T2 sequence (P23458 whole entry): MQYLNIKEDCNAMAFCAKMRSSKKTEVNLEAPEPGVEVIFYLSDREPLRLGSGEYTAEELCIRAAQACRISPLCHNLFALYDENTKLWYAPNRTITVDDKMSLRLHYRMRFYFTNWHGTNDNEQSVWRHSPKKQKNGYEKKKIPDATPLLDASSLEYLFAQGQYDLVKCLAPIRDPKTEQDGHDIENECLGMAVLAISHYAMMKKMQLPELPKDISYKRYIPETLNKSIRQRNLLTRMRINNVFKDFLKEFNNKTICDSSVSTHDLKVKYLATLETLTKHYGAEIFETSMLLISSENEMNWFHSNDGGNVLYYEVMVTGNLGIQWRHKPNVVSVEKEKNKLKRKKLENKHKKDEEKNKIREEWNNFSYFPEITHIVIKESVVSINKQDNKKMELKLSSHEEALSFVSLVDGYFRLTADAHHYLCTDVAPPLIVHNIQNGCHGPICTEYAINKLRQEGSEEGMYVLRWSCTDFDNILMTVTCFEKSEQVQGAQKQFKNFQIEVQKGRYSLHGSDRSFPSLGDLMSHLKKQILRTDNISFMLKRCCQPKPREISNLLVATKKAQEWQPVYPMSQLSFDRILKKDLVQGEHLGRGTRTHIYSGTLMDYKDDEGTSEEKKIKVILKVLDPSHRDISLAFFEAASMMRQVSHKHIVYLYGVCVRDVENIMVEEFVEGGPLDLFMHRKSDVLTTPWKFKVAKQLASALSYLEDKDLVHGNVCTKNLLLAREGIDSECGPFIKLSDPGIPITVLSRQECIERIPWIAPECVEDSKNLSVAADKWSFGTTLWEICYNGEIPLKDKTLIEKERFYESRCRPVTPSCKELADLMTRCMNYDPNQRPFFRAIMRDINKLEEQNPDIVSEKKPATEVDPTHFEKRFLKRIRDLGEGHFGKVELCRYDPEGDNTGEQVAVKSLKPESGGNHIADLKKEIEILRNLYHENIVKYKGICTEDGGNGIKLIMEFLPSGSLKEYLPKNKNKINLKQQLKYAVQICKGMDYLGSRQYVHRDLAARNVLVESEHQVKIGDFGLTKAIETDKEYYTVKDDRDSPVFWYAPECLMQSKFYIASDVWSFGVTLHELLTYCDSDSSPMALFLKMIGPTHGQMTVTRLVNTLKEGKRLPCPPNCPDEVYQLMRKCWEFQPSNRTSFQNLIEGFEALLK
Outline: as §1

ACK = biological target: T3, ACK (Homo sapiens, UniProt Q07912); test: Probe-based (AX9989) kinase profiling in Jurkat lysate: ACK; format: binding; conditions: read-out: Kinase inhibition % at indicated screening concentration: ACK; for inhibition at 1 µM: screening concentration 1.0 μM; for inhibition at 0.1 µM: screening concentration 0.1 μM
T3 construct: screened for activity against several kinases in Jurkat cells; endogenous in cells; host or cells: Jurkat cell lysate
T3 sequence (Q07912 whole entry): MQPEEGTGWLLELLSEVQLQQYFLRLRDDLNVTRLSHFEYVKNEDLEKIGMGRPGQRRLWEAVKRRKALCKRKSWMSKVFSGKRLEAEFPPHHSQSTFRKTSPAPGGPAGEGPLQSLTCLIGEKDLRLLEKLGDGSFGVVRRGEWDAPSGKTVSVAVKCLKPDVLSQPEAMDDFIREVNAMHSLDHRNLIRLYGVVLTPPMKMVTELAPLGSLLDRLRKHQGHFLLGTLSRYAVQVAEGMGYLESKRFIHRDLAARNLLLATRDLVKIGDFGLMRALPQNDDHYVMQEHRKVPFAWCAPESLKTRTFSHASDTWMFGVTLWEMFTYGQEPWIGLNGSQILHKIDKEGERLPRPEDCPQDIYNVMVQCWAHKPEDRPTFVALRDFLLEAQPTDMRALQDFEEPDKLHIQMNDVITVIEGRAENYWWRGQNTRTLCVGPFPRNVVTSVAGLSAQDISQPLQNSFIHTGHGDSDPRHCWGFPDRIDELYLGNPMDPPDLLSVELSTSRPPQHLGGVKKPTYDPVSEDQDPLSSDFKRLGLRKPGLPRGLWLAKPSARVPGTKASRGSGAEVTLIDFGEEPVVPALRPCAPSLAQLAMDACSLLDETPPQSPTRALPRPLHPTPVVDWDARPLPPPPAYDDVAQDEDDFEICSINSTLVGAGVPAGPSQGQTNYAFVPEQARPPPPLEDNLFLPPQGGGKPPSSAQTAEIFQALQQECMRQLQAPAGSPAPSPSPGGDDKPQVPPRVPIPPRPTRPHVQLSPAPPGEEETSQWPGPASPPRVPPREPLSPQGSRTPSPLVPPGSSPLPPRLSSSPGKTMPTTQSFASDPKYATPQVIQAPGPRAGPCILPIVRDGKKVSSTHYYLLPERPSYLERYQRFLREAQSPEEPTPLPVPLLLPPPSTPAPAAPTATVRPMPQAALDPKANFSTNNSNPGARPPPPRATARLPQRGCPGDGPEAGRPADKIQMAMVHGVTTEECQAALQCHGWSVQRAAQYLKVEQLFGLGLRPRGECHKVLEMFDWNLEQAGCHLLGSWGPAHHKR
Outline: as §1

human PBMCs = test: Human PBMC TNF-α response to endotoxin (ELISA); format: cell-based; conditions: 0.1 μg/ml LPS 16 h, read-out: EC50 for the inhibition of the human PBMC TNF-α response to endotoxin, ave. ± S.D.
Outline: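 PBMCs at 2e6 cells/ml in RPMI 1640 with 10% charcoal-dextran-treated FBS were pre-treated 1 h at 37 °C with compound (4-point 1:5 dilution from 10 μM). Stimulation with 0.1 μg/ml E. coli 0111:B4 LPS for 16 h; TNF-α measured by ELISA (A450) in 25-fold diluted supernatant.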

ABL or ARG = test: Probe-based (AX9989) kinase profiling in Jurkat lysate: ABL or ARG; format: binding
Outline: as §1

[1] = biological target: T4, BRD4 bromodomain domain I [BRD4(1)] (Homo sapiens, UniProt O60885); test: BRD4 bromodomain domain 1 inhibition assay (TR-FRET); format: binding; conditions: screening concentration 10 μM
T4 construct: BRD4 bromodomain domain I [BRD4(1)]; purchased Cayman Chemicals
Outline: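 0.5% DMSO, in triplicate, using Cayman BRD4(1) TR-FRET protocol with slight modification. 670/620 nm ratio normalized to 10 μM JQ1, with DMSO control set as 0% inhibition.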

Row | SMILES | IC50 (ERK5) | inhibition at 1 µM (ERK5) | Kinase inhibition % at indicated screening concentration: AMPKa1 or AMPKa2 (AMPKa1 or AMPKa2; screening concentration 1.0 μM) | inhibition at 1 µM (JAK1) | inhibition at 1 µM (ACK) | Kinase inhibition % at indicated screening concentration: ABL or ARG (ABL or ARG; screening concentration 1.0 μM) | inhibition at 10 µM [1] | inhibition at 0.1 µM (ERK5) | Kinase inhibition % at indicated screening concentration: AMPKa1 or AMPKa2 (AMPKa1 or AMPKa2; screening concentration 0.1 μM) | inhibition at 0.1 µM (JAK1) | inhibition at 0.1 µM (ACK) | Kinase inhibition % at indicated screening concentration: ABL or ARG (ABL or ARG; screening concentration 0.1 μM) | EC50 (human PBMCs)
1 | CCOc1cc(C(=O)N2CCN(CCOCCO)CC2)ccc1Nc1cc2c(cn1)N(C)C(=O)c1ccccc1N2C [Compound 6] | ≤ 0.05 µM | > 90% | E (E is ≦35%) | ≤ 35% | ≤ 35% | E (E is ≦35%) | > 85% | – | – | – | – | – | 0.54 µM
2 | CCOc1cc(C(=O)N2CCN(CC3CC3)CC2)ccc1Nc1cc2c(cn1)N(C)C(=O)c1ccccc1N2C [Compound 10] | ≤ 0.05 µM | – | – | – | – | – | 70 to 85% | 75 to 90% | E (E is ≦35%) | ≤ 35% | ≤ 35% | E (E is ≦35%) | 1.28 µM
3 | CCOc1cc(C(=O)N2CCC(N3CCCC3)CC2)ccc1Nc1cc2c(cn1)N(C)C(=O)c1ccccc1N2C [Compound 46, 3-(2-Ethoxy-4-(4-(pyrrolidin-1-yl)piperidine-1-carbonyl)phenylamino)-5,11-dimethyl-5H-benzo[e]pyrido[3,4-b][1,4]diazepin-10(11H)-one] | ≤ 0.05 µM | > 90% | E (E is ≦35%) | ≤ 35% | ≤ 35% | E (E is ≦35%) | > 85% | – | – | – | – | – | 0.47 µM
4 | Cc1cc(CN2CC[C@@H](N3CCCC3)C2)ccc1Nc1cc2c(cn1)N(C)C(=O)c1ccccc1N2C [Compound 49] | ≤ 0.05 µM | – | – | – | – | – | > 85% | > 90% | E (E is ≦35%) | ≤ 35% | ≤ 35% | E (E is ≦35%) | 1.51 µM
5 | CN1C(=O)c2occc2N(C)c2cc(N[C@H]3CC[C@H](N)CC3)ncc21 [Compound 53] | 0.101 to 0.5 µM | 75 to 90% | E (E is ≦35%) | ≤ 35% | ≤ 35% | E (E is ≦35%) | 70 to 85% | – | – | – | – | – | 4.13 µM
6 | CCOc1cc(C(=O)NCCCN(CC)CC)ccc1Nc1cc2c(cn1)N(C)C(=O)c1ccccc1N2C [Compound 54] | 0.101 to 0.5 µM | 75 to 90% | E (E is ≦35%) | ≤ 35% | ≤ 35% | E (E is ≦35%) | > 85% | – | – | – | – | – | 0.6 µM

Further lines, with some results ahead:

Row | IC50 (ERK5) | inhibition at 1 µM (ERK5) | Kinase inhibition % at indicated screening concentration: AMPKa1 or AMPKa2 (AMPKa1 or AMPKa2; screening concentration 1.0 μM) | inhibition at 1 µM (JAK1) | inhibition at 1 µM (ACK) | Kinase inhibition % at indicated screening concentration: ABL or ARG (ABL or ARG; screening concentration 1.0 μM) | inhibition at 10 µM [1] | inhibition at 0.1 µM (ERK5) | Kinase inhibition % at indicated screening concentration: AMPKa1 or AMPKa2 (AMPKa1 or AMPKa2; screening concentration 0.1 μM) | inhibition at 0.1 µM (JAK1) | inhibition at 0.1 µM (ACK) | Kinase inhibition % at indicated screening concentration: ABL or ARG (ABL or ARG; screening concentration 0.1 μM) | SMILES | EC50 (human PBMCs)
7 | 0.101 to 0.5 µM | > 90% | E (E is ≦35%) | ≤ 35% | ≤ 35% | E (E is ≦35%) | 70 to 85% | – | – | – | – | – | CCOc1cc(C(=O)N2CCCN(C)CC2)ccc1Nc1cc2c(cn1)N(C)C(=O)c1ccccc1N2C [Compound 8] | 0.65 µM
8 | 0.101 to 0.5 µM | – | – | – | – | – | < 70% | 35 to 50% | E (E is ≦35%) | ≤ 35% | ≤ 35% | E (E is ≦35%) | CCOc1cc(C(N)=O)ccc1Nc1cc2c(cn1)N(C)C(=O)c1ccccc1N2C [Compound 51] | 2.04 µM
9 | 0.05 to 0.1 µM | > 90% | E (E is ≦35%) | ≤ 35% | ≤ 35% | E (E is ≦35%) | 70 to 85% | – | – | – | – | – | CCOc1cc(C(=O)N2CCC(O)CC2)ccc1Nc1cc2c(cn1)N(C)C(=O)c1ccccc1N2C [Compound 52] | 0.82 µM
